Results on 2 compounds are retold here after paper PMC11732879, “Preclinical evaluation of ^225Ac-labeled minigastrin analog DOTA-CCK-66 for Targeted Alpha Therapy” (European Journal of Nuclear Medicine and Molecular Imaging, 2024).

Structures are written as SMILES. *1 amine or outer side, *2 acyl side, *3 side chain or, on linkers, in order; H or OH if unused. Where a SMILES comes first, the peptide text is derived from it. [ ]: non-standard residue; d: D form. The star is where a group is joined. DOTA = O=C(O)CN1CCN(CC(=O)O)CCN(CC(=O)*)CCN(CC(=O)O)CC1; d(γGlu) = O=C(O)[C@@H](CCC(=O)[*:2])N[*:1]; 1Nal = N[C@@H](Cc1cccc2ccccc12)C(=O)O; NMeNle = CCCC[C@H](NC)C(=O)O; PEG4 = NCCOCCOCCOCCOCCC(=O)O

The nature of one data set: in vivo. On the set-up: species or system 394-NOD SCID mice. As to conditions: 394-NOD SCID, mouse, 1.1 MBq. As for the experimental part:
Static PET/CT images of control group animals were acquired (n = 5) 1 h after injection of [^68Ga]Ga-DOTA-CCK-66 using a preclinical PET/CT scanner (Genisys 8 PET/CT; Sofie Biosciences, Dulles, VA, USA), according to a published procedure. PET image reconstruction was carried out using a maximum-likelihood expectation maximization with 60 iterations. Correction for photon attenuation of all images was performed. Acquisition parameters for CT applications were 40 kVp and […]. Acquired data were analyzed using OsiriX Imaging Software (version 3.9.3; Pixmeo SARL, Bernex, Switzerland).

A further data set relates to AR42J tumor. The data set is described as follows: Single-dose treatment study (tumor volume, survival). Type of data set: in vivo, 394-NOD SCID mice. As to conditions: for Tumor volume: single injection on day 0: [225Ac] 37 kBq (178 pmol), caliper, mean±SD, n=5. As for the experimental part:
AR42J cells (2 × 10^6 cells, 100 µL suspended in Matrigel) were subcutaneously inoculated into the right shoulder region of mice. When tumors reached 30 to 290 mm^3 (14 to 17 d after inoculation), […] into 3 groups (5 per group). On day 0 of the experiment mice received a single-dose injection of either [^68Ga]Ga-DOTA-CCK-66 (1.1 MBq, PET/CT imaging, control cohort), [^177Lu]Lu-DOTA-CCK-66 (37 MBq) or [^225Ac]Ac-DOTA-CCK-66 (37 kBq). Tumor volume (caliper measurements, length^2 × width/2) and body weight of all animals were subsequently monitored twice a week. Animals were sacrificed after reaching one of the end-point criteria (weight loss of more than 20%, tumor volume of more than 2,000 mm^3, ulceration of the tumor, respiratory distress, or change of behavior).

As to `CCCC[C@@H](C(=O)N[C@@H](CC(=O)O)C(=O)N[C@@H](Cc1cccc2ccccc12)C(N)=O)N(C)C(=O)[C@H](Cc1c[nH]c2ccccc12)NC(=O)CCOCCOCCOCCOCCNC(=O)CC[C@@H](NC(=O)CN1CCN(CC(=O)O)CCN(CC(=O)O)CCN(CC(=O)O)CC1)C(=O)O` [[^68Ga]Ga-DOTA-CCK-66, metal not drawn] ({DOTA-d(γGlu)-PEG4}-W[NMeNle]D[1Nal]-NH2), the SUV at 1 h in the data set “in vivo” came out at 2.02 ± 0.77 SUV.
As to `CCCC[C@@H](C(=O)N[C@@H](CC(=O)O)C(=O)N[C@@H](Cc1cccc2ccccc12)C(N)=O)N(C)C(=O)[C@H](Cc1c[nH]c2ccccc12)NC(=O)CCOCCOCCOCCOCCNC(=O)CC[C@@H](NC(=O)CN1CCN(CC(=O)O)CCN(CC(=O)O)CCN(CC(=O)O)CC1)C(=O)O` [[^225Ac]Ac-DOTA-CCK-66] [metal not drawn] ({DOTA-d(γGlu)-PEG4}-W[NMeNle]D[1Nal]-NH2), the “fold increase in mean survival, 225Ac-TAT compared to 177Lu-RLT” value with AR42J tumor (54 d versus 37 d, p = 0.0003) was found to be 1.5 fold. For the same compound, the Tumor volume in the data set on AR42J tumor (day 0, [177Lu] 37 MBq (1.7 nmol), [68Ga] control cohort 1.1 MBq (29 pmol)) was 150±80 mm^3; in the data set with AR42J tumor (day 3, [177Lu] 37 MBq (1.7 nmol), [68Ga] control cohort 1.1 MBq (29 pmol)), 170±110 mm^3; with AR42J tumor (day 7, [177Lu] 37 MBq (1.7 nmol), [68Ga] control cohort 1.1 MBq (29 pmol)), 130±60 mm^3; in the data set with AR42J tumor (day 10, [177Lu] 37 MBq (1.7 nmol), [68Ga] control cohort 1.1 MBq (29 pmol)), 100±60 mm^3; with AR42J tumor (day 14, [177Lu] 37 MBq (1.7 nmol)), 100±50 mm^3; in the data set on AR42J tumor (day 17, [177Lu] 37 MBq (1.7 nmol)), 100±50 mm^3. The Tumor volume with AR42J tumor (day 21, [177Lu] 37 MBq (1.7 nmol)) amounted to 90±60 mm^3; in the data set with AR42J tumor (day 24, [177Lu] 37 MBq (1.7 nmol)), 130±70 mm^3; with AR42J tumor (day 28, [177Lu] 37 MBq (1.7 nmol)), 130±80 mm^3; in the data set with AR42J tumor (day 31, [177Lu] 37 MBq (1.7 nmol)) it was 160±90 mm^3; in the data set with AR42J tumor (day 35), 240±130 mm^3; in the data set on AR42J tumor (day 38), 470±280 mm^3. Also, the Tumor volume is on record as 740±430 mm^3 in the data set with AR42J tumor (day 42), 1,040±690 mm^3 in the data set on AR42J tumor (day 45) and 1,600±830 mm^3 in the data set with AR42J tumor (day 49). In the data set with AR42J tumor (single dose on day 0: [225Ac] 37 kBq, [177Lu] 37 MBq, [68Ga] 1.1 MBq (control group), n=5 per group), this compound showed a Mean survival of 54 ± 6 days. For the same compound, the “fold increase in mean survival versus control group” value in the data set with AR42J tumor (single dose: [225Ac] 37 kBq, [177Lu] 37 MBq, control 12 ± 3 d) was determined as 4.5 fold.
